ChEMBL document CHEMBL1671621, “Efficient clearance of Aspergillus fumigatus in murine lungs by an ultrashort antimicrobial lipopeptide, palmitoyl-lys-ala-DAla-lys” (Antimicrob Agents Chemother, 2008)
Converted amounts (≈) assume the structure as drawn. The source made the active and inactive calls. No cut-off for these calls is given here. Where a SMILES comes first, the peptide text is derived from it. [ ]: non-standard residue; d: D form. The star is where a group is joined. Palmitoyl = CCCCCCCCCCCCCCCC(=O)*; Lauroyl = CCCCCCCCCCCC(=O)*

How the values were obtained:
[1] = Toxicity in human RBC assessed as hemolysis at 20 uM; format: cell-based, Erythrocyte; details: red blood cells (RBC), read-out: Activity
[2] = Toxicity in human RBC assessed as hemolysis at 50 uM; format: cell-based, Erythrocyte; details: red blood cells (RBC), read-out: Activity
Aspergillus fumigatus [3] = experiment: Antifungal activity against Aspergillus fumigatus CBS 144.89 by CLSI […] method; format: functional
Aspergillus fumigatus [4] = experiment: Antifungal activity against DsRed-labeled Aspergillus fumigatus CBS 144.89 infected in immunocompromized C57BL/6 mouse assessed fungal hyphae degradation in lung at 4.5 mg/kg qd administered intratracheally for 4 days relative to untreated control; format: functional, organism-based; design: dose 4.5 mg/kg
Aspergillus fumigatus [5] = experiment: Antifungal activity against DsRed-labeled Aspergillus fumigatus CBS 144.89 infected in transgenic C57BL/6 Cx3cr1 gfp/+ mouse assessed as macrophages phygocytosed-fungal conidia at 4.5 mg/kg qd administered intratracheally for 4 days relative to untreated control; format: functional, organism-based; design: dose 4.5 mg/kg
Aspergillus fumigatus [6] = experiment: (§1) Antifungal activity against DsRed-labeled Aspergillus fumigatus CBS 144.89 infected in immunocompromized mouse assessed as decrease in residual fungal spore colocalized with macrophage and dendritic cell at 4.5 mg/kg qd administered intratracheally for 4 days relative to untreated control; format: functional, organism-based; design: dose 4.5 mg/kg
Aspergillus fumigatus [7] = experiment: Antifungal activity against Aspergillus fumigatus CBS 144.89 infected in immunosuppressed wild-type C57BL/6 mouse assessed as increase in survival rate at 4.5 mg/kg administered intratracheally on days 1, 4, 7 and 11 one day post infection measured after 21 days relative to untreated control; format: functional, organism-based; design: dose 4.5 mg/kg
Aspergillus fumigatus [8] = experiment: as §1, with “transgenic C57BL/6 Cx3cr1 gfp/+mouse” for “immunocompromized mouse”; format: functional, organism-based; design: dose 4.5 mg/kg
Mus musculus [9] = experiment: Toxicity in immunosuppressed C57BL/6 mouse assessed as mild multifocal interstitial plasmacytic infiltration at 1 mg/kg administered intratracheally on days 1, 4, 7 and 11 one day post infection; format: organism-based; design: dose 1 mg/kg, route endotracheal; details: in vivo, inhaled_or_intranasal
Mus musculus [10] = experiment: Toxicity in immunosuppressed C57BL/6 mouse assessed as mild multifocal interstitial plasmacytic infiltration at 4.5 mg/kg administered intratracheally on days 1, 4, 7 and 11 one day post infection; format: organism-based; design: dose 4.5 mg/kg, route endotracheal; details: in vivo, inhaled_or_intranasal
Aspergillus fumigatus [11] = experiment: Antifungal activity against Aspergillus fumigatus CBS 144.89 infected in immunosuppressed wild-type C57BL/6 mouse assessed as increase in survival rate at 4.5 mg/kg administered intratracheally for 4 days from the day of infection measured after 14 days relative to untreated control; format: functional, organism-based; design: dose 4.5 mg/kg
Aspergillus fumigatus [12] = experiment: Antifungal activity against Aspergillus fumigatus CBS 144.89 infected in immunosuppressed wild-type C57BL/6 mouse assessed as recovery from infection at 4.5 mg/kg administered intratracheally on days 1, 4, 7 and 11 one day post infection measured after 21 days relative to untreated control; format: functional; details: route endotracheal
Aspergillus fumigatus [13] = experiment: Antifungal activity against Aspergillus fumigatus CBS 144.89 infected in immunosuppressed wild-type C57BL/6 mouse assessed as increase in survival rate at 4.5 mg/kg administered intratracheally as single dose one day postinfection measured after 14 days relative to untreated control; format: functional, organism-based; design: dose 4.5 mg/kg
Aspergillus fumigatus [14] = experiment: Antifungal activity against DsRed-labeled Aspergillus fumigatus CBS 144.89 infected in immunocompromized mouse assessed as macrophages phygocytosed-fungal conidia at 4.5 mg/kg qd administered intratracheally for 4 days relative to untreated control; format: functional, organism-based; design: dose 4.5 mg/kg
Aspergillus fumigatus [15] = experiment: Antifungal activity against Aspergillus fumigatus CBS 144.89 infected in immunosuppressed wild-type C57BL/6 mouse assessed as clearance of fungal forms in lung at 4.5 mg/kg administered intratracheally on days 1, 4, 7 and 11 one day post infection measured after 21 days relative to untreated control; format: functional, organism-based; design: dose 4.5 mg/kg
Mus musculus [16] = experiment: Toxicity in immunosuppressed C57BL/6 mouse assessed as vasculitis at 1 to 4.5 mg/kg administered intratracheally on days 1, 4, 7 and 11 one day post infection; format: organism-based; design: dose 1-4.5 mg/kg, route endotracheal; details: in vivo, inhaled_or_intranasal
Mus musculus [17] = experiment: Toxicity in immunosuppressed C57BL/6 mouse assessed as blood vessel formation at 1 to 4.5 mg/kg administered intratracheally on days 1, 4, 7 and 11 one day post infection; format: organism-based; design: dose 1-4.5 mg/kg, route endotracheal; details: in vivo, inhaled_or_intranasal
Mus musculus [18] = experiment: Toxicity to immunosuppressed C57BL/6 mouse assessed as airway infiltration of neutrophils at 1 to 4.5 mg/kg administered intratracheally on days 1, 4, 7 and 11 one day post infection; format: organism-based; design: dose 1-4.5 mg/kg, route endotracheal; details: in vivo, inhaled_or_intranasal
Aspergillus fumigatus [19] = experiment: Antifungal activity against DsRed-labeled Aspergillus fumigatus CBS 144.89 infected in immunocompromized C57BL/6 mouse assessed fungal hyphae degradation in lung at 1 mg/kg qd administered intratracheally for 4 days relative to untreated control; format: functional, organism-based; design: dose 1 mg/kg
Mus musculus [20] = experiment: Toxicity in immunosuppressed C57BL/6 mouse assessed as macrophage infiltration in the airways at 1 to 4.5 mg/kg administered intratracheally on days 1, 4, 7 and 11 one day post infection; format: organism-based; design: dose 1-4.5 mg/kg, route endotracheal; details: in vivo, inhaled_or_intranasal
Aspergillus fumigatus [21] = experiment: Antifungal activity against Aspergillus fumigatus CBS 144.89 infected in immunosuppressed wild-type C57BL/6 mouse assessed as increase in survival rate at 1 mg/kg administered intratracheally for 4 days from the day of infection measured after 14 days relative to untreated control; format: functional, organism-based; design: dose 1 mg/kg
Aspergillus fumigatus [22] = experiment: Antifungal activity against Aspergillus fumigatus CBS 144.89 infected in immunosuppressed wild-type C57BL/6 mouse assessed as increase in survival rate at 1 mg/kg administered intratracheally as single dose one day postinfection measured after 14 days relative to untreated control; format: functional, organism-based; design: dose 1 mg/kg
Mus musculus [23] = experiment: Toxicity in immunosuppressed C57BL/6 mouse assessed as hemorrhages at 1 to 4.5 mg/kg administered intratracheally on days 1, 4, 7 and 11 one day post infection; format: organism-based; design: dose 1-4.5 mg/kg, route endotracheal; details: in vivo, inhaled_or_intranasal
Mus musculus [24] = experiment: Toxicity in immunosuppressed C57BL/6 mouse assessed as edema at 1 to 4.5 mg/kg administered intratracheally on days 1, 4, 7 and 11 one day post infection; format: organism-based; design: dose 1-4.5 mg/kg, route endotracheal; details: in vivo, inhaled_or_intranasal

`CCCCCCCCCCCCCCCC(=O)N[C@@H](CCCCN)C(=O)N[C@@H](CC(C)C)C(=O)N[C@H](CC(C)C)C(=O)N[C@@H](CCCCN)C(=O)O` showed a hemolysis at 20 µM [1] of 9%, a hemolysis at 50 µM [2] of 45% and an MIC (Aspergillus fumigatus [3]) of 2 µg/mL (≈ 2.71 µM).

Compound `CCCCCCCCCCCCCC(=O)N[C@@H](CCCCN)C(=O)N[C@@H](CC(C)C)C(=O)N[C@H](CC(C)C)C(=O)N[C@@H](CCCCN)C(=O)O` has a hemolysis at 20 µM [1] of 13%, a hemolysis at 50 µM [2] of 50% and an MIC (Aspergillus fumigatus [3]) of 9 µg/mL (≈ 12.7 µM).

In the case of `CCCCCCCCCCCC(=O)N[C@@H](CC(=O)O)C(=O)N[C@@H](CC(C)C)C(=O)N[C@@H](CCCCN)C(=O)N[C@@H](CCCCN)C(=O)N[C@@H](CC(C)C)C(=O)N[C@@H](CC(C)C)C(=O)N[C@@H](CCCCN)C(=O)N[C@@H](CCCCN)C(=O)N[C@@H](CC(C)C)C(=O)N[C@@H](CC(C)C)C(=O)N[C@@H](CCCCN)C(=O)N[C@@H](CCCCN)C(=O)N[C@@H](CC(C)C)C(=O)O` (Lauroyl-DLKKLLKKLLKKL-OH), the hemolysis at 20 µM [1] is reported as 0%, the hemolysis at 50 µM [2] is reported as 0% and the Activity (Aspergillus fumigatus [4]) is reported as “Active”. For the same compound, the MIC (Aspergillus fumigatus [3]) was 20.8 µg/mL (≈ 11.8 µM).

Compound `CCCCCCCCCCCC(=O)N[C@@H](CCCCN)C(=O)N[C@@H](CC(C)C)C(=O)N[C@H](CC(C)C)C(=O)N[C@@H](CCCCN)C(=O)O` (Lauroyl-KL[dL]K-OH) has a hemolysis at 20 µM [1] of 0%, a hemolysis at 50 µM [2] of 0% and an MIC (Aspergillus fumigatus [3]) of 34 µg/mL (≈ 49.8 µM).

For `CCCCCCCCCCCCCCCC(=O)N[C@@H](CCCCN)C(=O)N[C@@H](C)C(=O)N[C@H](C)C(=O)N[C@@H](CCCCN)C(=O)O` (Palmitoyl-KA[dA]K-OH), the Activity (Aspergillus fumigatus [5]) was “Active”, the Activity (Aspergillus fumigatus [6]) was “Active” and the Activity (Aspergillus fumigatus [7]) was “Active”. For the same compound, the Activity (Aspergillus fumigatus [8]) was “Active”, the Activity (Mus musculus [9]) was “Toxic” and the Activity (Mus musculus [10]) was “Toxic”. The Activity (Aspergillus fumigatus [11]) was “Active”, the Activity (Aspergillus fumigatus [12]) was 25% and the hemolysis at 20 µM [1] was 0%. The hemolysis at 50 µM [2] was 3%, the Activity (Aspergillus fumigatus [13]) was “Active” and the Activity (Aspergillus fumigatus [14]) was “Active”. The Activity (Aspergillus fumigatus [4]) was “Active”, the MIC (Aspergillus fumigatus [3]) was 8 µg/mL (≈ 12.2 µM) and the Activity (Aspergillus fumigatus [15]) was “Active”.

`CCCCCCCCCCCCCCCC(=O)N[C@@H](CCCCN)C(=O)N[C@@H](CCCCN)C(=O)N[C@H](CCCCN)C(=O)N[C@@H](CCCCN)C(=O)O` (Palmitoyl-KK[dK]K-OH) showed a hemolysis at 20 µM [1] of 0%, a hemolysis at 50 µM [2] of 6% and an MIC (Aspergillus fumigatus [3]) of 38.4 µg/mL (≈ 49.9 µM).

In the case of `C[C@@H]1[C@H](O)[C@@H](C)/C=C/C=C/C=C/C=C/C=C/C=C/C=C/[C@H](O[C@@H]2O[C@H](C)[C@@H](O)[C@H](N)[C@@H]2O)C[C@@H]2O[C@](O)(C[C@@H](O)C[C@@H](O)[C@H](O)CC[C@@H](O)C[C@@H](O)CC(=O)O[C@H]1C)C[C@H](O)[C@H]2C(=O)O` [AMPHOTERICIN B], the Activity (Mus musculus [16]) is reported as “Toxic”, the Activity (Mus musculus [17]) is reported as “Toxic” and the Activity (Mus musculus [18]) is reported as “Toxic”. For the same compound, the Activity (Aspergillus fumigatus [19]) was “inactive”, the Activity (Mus musculus [20]) was “Toxic” and the Activity (Aspergillus fumigatus [21]) was “inactive”. The MIC (Aspergillus fumigatus [3]) was 11.5 µg/mL (≈ 12.4 µM), the Activity (Aspergillus fumigatus [22]) was “inactive” and the Activity (Mus musculus [23]) was “Toxic”. For the same compound, the Activity (Mus musculus [24]) was “Toxic”.
